Literature values, collected in paper PMC4360375 (Journal of Medicinal Chemistry, 2015).
Like-named read-outs stand apart in the source and are kept apart here.

System: GABA uptake, rat synaptosome
Details: literature data set, cited from earlier work
[1] = ref 10.1016/S0968-0896(01)00148-1

Cc1csc(/C(=N/OCCN2CCC[C@@H](C(=O)O)C2)c2ccccc2C)c1 [An_1999/3_20, s1cc(cc1/C(=N/OCCN1C[C@@H](CCC1)C(O)=O)/c1ccccc1C)C]
pIC50 (ref 10.1021/jm981027k): 6.108

Cc1ccsc1/C(=C/CCN1CCC[C@H](C(=O)O)C1)c1cccs1 [An_1993_41, s1ccc(C)c1\C(=C\CCN1C[C@H](CCC1)C(O)=O)\c1sccc1]
pIC50 (ref 10.1021/jm00064a005): 6.161

O=C(O)C1=CCCN(CCOCCC(c2ccccc2)c2ccccc2)C1 [An_1999/4_30, O(CCC(c1ccccc1)c1ccccc1)CCN1CC(=CCC1)C(O)=O]
pIC50 (ref 10.1021/jm980492e): 7.319

Cc1ccccc1/C(=C\OCCN1CCC[C@@H](C(=O)O)C1)c1ccccc1 [An_1999/3_96, O(\C=C(/c1ccccc1C)\c1ccccc1)CCN1C[C@@H](CCC1)C(O)=O]
pIC50 (ref 10.1021/jm981027k): 7.699

O=C(O)[C@@H]1CCCN(CCO/C=C(/c2ccc(F)cc2F)c2cc(F)ccc2F)C1 [An_1999/3_106, Fc1cc(F)ccc1/C(=C/OCCN1C[C@@H](CCC1)C(O)=O)/c1cc(F)ccc1F]
pIC50 (ref 10.1021/jm981027k): 7.301

Cc1ccccc1C(=CCOCCCN1CCC[C@@H](C(=O)O)C1)c1ccccc1C [An_1999/4_(R)-24, O(CCCN1C[C@@H](CCC1)C(O)=O)C\C=C(\c1ccccc1C)/c1ccccc1C]
pIC50 (ref 10.1021/jm980492e): 7.097

O=C(O)[C@@H]1CCCN(CCOC=C(c2cc(F)ccc2F)c2cc(F)ccc2F)C1 [An_1999/3_107, Fc1ccc(F)cc1\C(=C\OCCN1C[C@@H](CCC1)C(O)=O)\c1cc(F)ccc1F]
pIC50 (ref 10.1021/jm981027k): 6.745

O=C(O)[C@@H]1CCCN(CCCOCC=C2c3ccccc3CCc3ccccc32)C1 [An_2001/5_36, O(CCCN1C[C@@H](CCC1)C(O)=O)C\C=C/1\c2c(CCc3c\1cccc3)cccc2]
pIC50 (ref 10.1021/jm990513k): 6.337

O=C(O)[C@@H]1CCCN(CCCCCCN(c2ccccc2)c2ccccc2)C1 [An_1999/4_(R)-13, OC(=O)[C@@H]1CCCN(C1)CCCCCCN(c1ccccc1)c1ccccc1]
pIC50 (ref 10.1021/jm980492e): 6.18

CCc1ccccc1C(=COCCN1CCC[C@@H](C(=O)O)C1)c1ccccc1CC [An_1999/3_103, O(\C=C(\c1ccccc1CC)/c1ccccc1CC)CCN1C[C@@H](CCC1)C(O)=O]
pIC50 (ref 10.1021/jm981027k): 7.523

O=C(O)[C@@H]1CCCN(CCOCc2ccc3ccccc3c2-c2ccccc2)C1 [An_2001/6_36, O(Cc1ccc2c(cccc2)c1-c1ccccc1)CCN1C[C@@H](CCC1)C(O)=O]
pIC50 [1]: 5.098

Cc1ccccc1C(=NOCCN1CCC[C@@H](C(=O)O)C1)c1ccccc1C [An_1999/3_62, O(\N=C(\c1ccccc1C)/c1ccccc1C)CCN1C[C@@H](CCC1)C(O)=O]
pIC50 (ref 10.1021/jm981027k): 7.155

Cc1cc(Cl)ccc1/C(=C\CCN1CCC[C@@H](C(=O)O)C1)c1sccc1C [An_1993_44, Clc1cc(C)c(cc1)\C(=C/CCN1C[C@@H](CCC1)C(O)=O)\c1sccc1C]
pIC50 (ref 10.1021/jm00064a005): 6.959

O=C(O)[C@@H]1CCCN(CCO/N=C(/Cc2ccc(F)cc2)c2ccc(F)cc2)C1 [An_2001/6_17, Fc1ccc(cc1)C\C(=N\OCCN1C[C@@H](CCC1)C(O)=O)\c1ccc(F)cc1]
pIC50 [1]: 6.036

CC(C)C/C=C(/C=N/OCCN1CCC[C@@H](C(=O)O)C1)c1ccccc1 [An_2001/6_22, O(\N=C\C(=C\CC(C)C)\c1ccccc1)CCN1C[C@@H](CCC1)C(O)=O]
pIC50 [1]: 6.538

O=C(O)[C@@H]1CCCN(CCOCCN2c3ccc(F)cc3CCc3cc(F)ccc32)C1 [An_2001/5_30, Fc1cc2CCc3cc(F)ccc3N(c2cc1)CCOCCN1C[C@@H](CCC1)C(O)=O]
pIC50 (ref 10.1021/jm990513k): 6.602

O=C(O)C1=CCCN(CCOCCN2c3ccccc3CCc3ccccc32)C1 [An_2001/5_24, O(CCN1CC(=CCC1)C(O)=O)CCN1c2c(CCc3c1cccc3)cccc2]
pIC50 (ref 10.1021/jm990513k): 6.194

Cc1ccsc1/C(=C/CCN1CCC=C(C(=O)O)C1)c1ccc(Cl)cc1 [An_1993_48, Clc1ccc(cc1)/C(=C\CCN1CC(=CCC1)C(O)=O)/c1sccc1C]
pIC50 (ref 10.1021/jm00064a005): 6.071

Cc1ccsc1/C(=C/CCN1CCC=C(C(=O)O)C1)c1cc(Cl)cc(Cl)c1 [An_1993_38, Clc1cc(cc(Cl)c1)/C(=C\CCN1CC(=CCC1)C(O)=O)/c1sccc1C]
pIC50 (ref 10.1021/jm00064a005): 5.73

CCc1ccccc1C(=COCCN1CCC=C(C(=O)O)C1)c1ccccc1CC [An_1999/3_104, O(\C=C(\c1ccccc1CC)/c1ccccc1CC)CCN1CC(=CCC1)C(O)=O]
pIC50 (ref 10.1021/jm981027k): 7.301

O=C(O)[C@@H]1CCCN(CCC=C(c2ccccc2)c2ccccc2)C1 [(R)-SK&F-89976-A, OC(=O)[C@@H]1CCCN(C1)CC\C=C(\c1ccccc1)/c1ccccc1]
pIC50 (ref 10.1021/jm00064a005): 6.959

Cc1ccccc1/C(=C\CCN1CCC=C(C(=O)O)C1)c1sccc1C [An_1993_33, s1ccc(C)c1/C(=C/CCN1CC(=CCC1)C(O)=O)/c1ccccc1C]
pIC50 (ref 10.1021/jm00064a005): 6.886

Cc1ccccc1C(=CCOCCN1CCC[C@@H](C(=O)O)C1)c1ccccc1C [An_1999/4_(R)-23, O(CCN1C[C@@H](CCC1)C(O)=O)C\C=C(\c1ccccc1C)/c1ccccc1C]
pIC50 (ref 10.1021/jm980492e): 6.959

O=C(O)[C@@H]1CCCN(CCCN(c2ccccc2)c2ccccc2)C1 [An_1999/4_(R)-10, OC(=O)[C@@H]1CCCN(C1)CCCN(c1ccccc1)c1ccccc1]
pIC50 (ref 10.1021/jm980492e): 5.046

O=C(O)[C@@H]1CCCN(CCOCCN2c3ccccc3CCCc3ccccc32)C1 [An_2001/5_33, O(CCN1C[C@@H](CCC1)C(O)=O)CCN1c2c(CCCc3c1cccc3)cccc2]
pIC50 (ref 10.1021/jm990513k): 6.071

Cc1ccccc1/C(=C/OCCN1CCC[C@@H](C(=O)O)C1)c1cccc(F)c1 [An_1999/3_76, Fc1cc(ccc1)/C(=C\OCCN1C[C@@H](CCC1)C(O)=O)/c1ccccc1C]
pIC50 (ref 10.1021/jm981027k): 7.301

Cc1ccccc1C(=COCCN1CCC=C(C(=O)O)C1)c1ccccc1C [An_1999/3_70, O(\C=C(\c1ccccc1C)/c1ccccc1C)CCN1CC(=CCC1)C(O)=O]
pIC50 (ref 10.1021/jm981027k): 7.585

Cc1ccccc1/C(=N\OCCN1CCC=C(C(=O)O)C1)c1cccc(Cl)c1 [An_1999/3_92, Clc1cc(ccc1)/C(=N/OCCN1CC(=CCC1)C(O)=O)/c1ccccc1C]
pIC50 (ref 10.1021/jm981027k): 6.824

O=C(O)[C@@H]1CCCN(CCOC=C(c2cccc(Cl)c2)c2cccc(Cl)c2)C1 [An_1999/3_112, Clc1cc(ccc1)\C(=C\OCCN1C[C@@H](CCC1)C(O)=O)\c1cc(Cl)ccc1]
pIC50 (ref 10.1021/jm981027k): 6.699

O=C(O)[C@@H]1CCCN(CCC=C2c3ccccc3-c3ccccc32)C1 [compound 7, OC(=O)[C@@H]1CCCN(C1)CC\C=C/1\c2c(-c3c\1cccc3)cccc2]
pIC50 (ref 10.1021/jm00064a005): 5.717

O=C(O)C1=CCCN(CCOC(c2ccc(C(F)(F)F)cc2)c2ccc(C(F)(F)F)cc2)C1 [Cl-966, FC(F)(F)c1ccc(cc1)C(OCCN1CC(=CCC1)C(O)=O)c1ccc(cc1)C(F)(F)F]
pIC50 (ref 10.1021/jm00064a005): 6.357

Cc1ccccc1/C(=C\CCN1CCC[C@H](C(=O)O)C1)c1sccc1C [An_1993_32, s1ccc(C)c1/C(=C/CCN1C[C@H](CCC1)C(O)=O)/c1ccccc1C]
pIC50 (ref 10.1021/jm00064a005): 6.42

Cc1ccccc1/C(=C\CCN1CCC[C@@H](C(=O)O)C1)c1sccc1C [An_1993_31, s1ccc(C)c1/C(=C/CCN1C[C@@H](CCC1)C(O)=O)/c1ccccc1C]
pIC50 (ref 10.1021/jm00064a005): 7.097

O=C(O)[C@@H]1CCCN(CCO/N=C2\CCCC\C2=C/c2ccccc2)C1 [An_2001/6_26, O(\N=C\1/CCCC/C/1=C\c1ccccc1)CCN1C[C@@H](CCC1)C(O)=O]
pIC50 [1]: 5.013

O=C(O)[C@@H]1CCCN(CCO/N=C2\CCCC[C@@H]2c2ccccc2)C1 [An_2001/6_24, O(\N=C\1/CCCC[C@@H]/1c1ccccc1)CCN1C[C@@H](CCC1)C(O)=O]
pIC50 [1]: 6.489

CCc1ccccc1C(=NOCCN1CCC=C(C(=O)O)C1)c1ccccc1CC [An_1999/3_88, O(\N=C(\c1ccccc1CC)/c1ccccc1CC)CCN1CC(=CCC1)C(O)=O]
pIC50 (ref 10.1021/jm981027k): 6.745
